{
  "source": "patent US20080235824A1",
  "about": "“Use of Esterase Genes as Selectable Markers for Transforming Plant Cells” (priority 2006, published 2008)",
  "molecules": {"B1": {"name": "bovine PGE: bovine pregastric esterase, cloned from calf salivary glands and expressed in plants (protein)", "chain": "MWWLLVTVCFIHMSGNAFCFLGKIAKNPEASMNVSQMISYWGYPSEMHKVITADGYILQVYRIPHGKNNANHLGQRPVVFLQHGLLGSATNWISNLPKNSLGFLLADAGYDVWLGNSRGNTWAQEHLYYSPDSPEFWAFSFDEMAEYDLPSTIDFILRRTGQKKLHYVGHSQGTTIGFIAFSTNPTLAEKIKVFYALAPVATVKYTKSLFNKLALIPHFLFKIIFGDKMFYPHTFLEQFLGVEMCSRETLDVLCKNALFAITGVDNKNFNMSRLDVYIAHNPAGTSVQNTLHWRQAVKSGKFQAFDWGAPYQNLMHYHQPTPPIYNLTAMNVPIAVWSADNDLLADPQDVDLLLSKLSNLIYHKEIPNYNHLDFIWAMDAPQEVYNEIVSLMAEDKKEL", "modifications": "Bovine pregastric esterase cloned by IPG, translation product, with native leader and two amino acids added to form an ER retention signal sequence", "notes": "bovine pregastric esterase, cloned from calf salivary glands and expressed in plants"}, "B2": {"name": "nematode triglyceride lipase-cholesterol esterase: C. elegans triglyceride lipase-cholesterol esterase expressed in plants (protein)", "chain": "MKSLLLLFLLFLHTLCENVTTPNSEEDTDMTATPSTITPLLSTAQNPSLPKTSKLPLALKTPVPTFPFSSLATSDWLSSMPTIQTLLPPPLPLTTLEVPENENFGFTSLAPLWTLPTQPPAWSPMLDSPIKPIQNSMFPTFPTMPTLPTLPTLAPFTFPTLPPPTTMKPLNITIDPEALMDVPEIITHWGYPVETHKVVTVDGYILTLHRIPHSKNETSKSASKTPKPVVFLQHGLLCTSSIWLLNLPRQSAGYIFADQGYDVWLGNMRGNTYSKEHTRMTSADRRFWKFSWEEMARYDLPAMINYALKTTKRQNLYYVGHSQGALTMFAKMSEDPEMSKKIRKFFAMAPVARMSHVKGLFQNLGQIYEQYNLVYQVFGDGEFLTNNIFTKLLTDIFCDQAVNNPLCENFIFAVSGPNSNQFNNSRIGIYLAHNPAGTSSRNILHFAQMVKKKRMSRFDHGKDLNLKIYGAPSPPEYDIRKINSSIYLFYSDFDWLANPKDVEGFLIPMLPSKTLKKATKLRDFNHNDFLWGMRARKEIYDKIINTIKLDQRRVKLQNSMERFFERQSRNPTSGLDEETMMRLRNETMNLD", "modifications": "Caenorhabditis elegans", "notes": "C. elegans triglyceride lipase-cholesterol esterase expressed in plants"}},
  "key": {"[1]": {"test_system": "tobacco cultivar Xanthi leaf explants", "assay": "Agrobacterium transformation of tobacco with selection on detergent or kanamycin", "format": "cell-based, Nicotiana tabacum", "settings": "tobacco Xanthi, pIPG786 nptII, 100 micrograms/ml kanamycin, 235 explants", "text": "Transgenic tobacco (Nicotiana tabacum) cultivar “Xanthi” plants were created using the Agrobacterium tumefaciens DNA delivery method [Horsch et al., 1985] using pIPG833. Selection was on 1% or on 0.05% Tween 20 added to both shoot and root regeneration media. As a control for comparative purposes, pIPG786 was used (carrying the nptII gene for kanamycin resistance) for transformation and 100 micrograms/ml kanamycin was used for selection.\nTransgenic tobacco (Nicotiana tabacum) cultivar “Xanthi” plants were created using the Agrobacterium tumefaciens DNA delivery method [Horsch et al., 1985] using pIPG833. Selection was on 1% or on 0.05% Span 20 added to both shoot and root regeneration media.\nTransgenic tobacco (Nicotiana tabacum) cultivar “Xanthi” plants were created using the Agrobacterium tumefaciens DNA delivery method [Horsch et al., 1985] using pIPG875. Selection was on 1% Span 20 added to the shoot regeneration medium and 0.05% Span 20 added to the root regeneration medium."}, "[2]": {"test_system": "tomato cultivar Micro-Tom leaf explants", "assay": "Agrobacterium transformation of tomato with selection on detergent or kanamycin", "format": "cell-based, Lycopersicon esculentum", "settings": "tomato Micro-Tom, pIPG768 nptII, 100 micrograms/ml kanamycin, Exp. 1, 98 explants; for Transformation frequency (%): confirmed by PCR", "text": "Transgenic tomato (Lycopersicon esculentum) cultivar “Micro-Tom” plants were created using the Agrobacterium tumefaciens DNA delivery method [Riggs et al., 2001; Sun et al., 2006] using pIPG768. Selection was either on 1% Tween 20 added to both shoot and root regeneration media. As controls for comparative purposes, 100 micrograms/ml kanamycin was used."}, "[3]": {"test_system": "geranium petiole explants", "assay": "Survival of geranium petiole explants on regeneration medium with detergents", "format": "cell-based, Pelargonium X hortorum", "settings": "for Survival of geranium petiole explants on regeneration medium: surviving/total explants", "experimental": "Tween 20, a nonionic, fatty acid ester detergent, was evaluated as a potential selective agent for use in geranium (Pelargonium X hortorum) transformation experiments by placing geranium petiole explants into tissue culture with the addition to Tween 20 to the regeneration (shooting) medium normally used in geranium transformations (Robichon et al., 1995). Tween 20 was added at three concentrations: 1%, 0.1% and 0.01%. Each treatment consisted of 40 sterilized petiole explants placed in four tissue culture plates carrying 10 explants each. Survival of the explants was assayed weekly over four weeks on these media. Potential selective agent Span 20, also a nonionic, fatty acid ester detergent, was similarly evaluated, except that concentrations of 1%, 0.5% and 0.25% were evaluated over a twelve week period of time. The nonionic detergent Triton X-100, which is not a fatty acid ester detergent, was included for comparative purposes."}, "tomato leaf explants": {"test_system": "tomato leaf explants", "assay": "Survival of tomato leaf explants on regeneration medium with detergents", "format": "cell-based, Lycoperisicon esculentum", "settings": "1% detergent; for Survival of tomato leaf explants on regeneration medium: surviving/total explants", "experimental": "Tween 20 was similarly evaluated as a potential selective agent for use in tomato (Lycoperisicon esculentum) transformations by placing tomato leaf explants placed into tissue culture; Tween 20 was added to tomato regeneration (shooting) medium normally used in tomato transformations (Riggs et al., 2001) at a 1% concentration. Each treatment consisted of 40 sterilized leaf explants placed in four tissue culture plates carrying 10 explants each. Survival of the explants was assayed weekly over four weeks on these media."}, "[4]": {"assay": "Phenol red lipase/esterase assay with crude plant leaf extracts", "format": "biochemical", "settings": "transiently plant-expressed enzyme or positive control", "text": "In this Figure, the first tube on the left (labeled “Buffer”) contains phenol red buffer and Tween 20 (the dark red color appears dark in this black and white figure); the second tube to the right (“SL”) has 4 Units of Sigma porcine pancreatic lipase added (the bright yellow color appears light); the third tube to the right (labeled “731”) has a twenty microliter droplet of a crude tomato plant leaf extract from leaves inoculated 4 days earlier with GV2260 carrying “empty” (ie., no lipase gene) expression vector pIPG731 (the dark red color appears dark), and the fourth tube to the right (“768 WI”) has a twenty microliter droplet of crude tomato plant leaf extract from leaves inoculated four days earlier with GV2260 carrying cloned bovine pregastric esterase expressed in pIPG768 (the bright yellow color appears light). Tomato leaf tissue particles may be seen floating in the third and fourth tubes to the right. […] The photo was taken 16 hrs. after start of the assay.\nFor transient expression assays of bovine PGE, the plant transformation and expression vectors constructed in Example 12 were moved into A. tumefaciens strain GV2260 by either electroporation or bacterial conjugation as described (Kapila et al., 1997). GV2260 carrying pIPG745 or pIPG746 was used for transient expression in tobacco, pepper, tomato, citrus, geranium, and rice plants as described (Kapila et al. 1997; Duan et al., 1999; Wroblewski et al. 2005). Cultures of Agrobacterium harboring the constructs of interest were grown in minimal medium in the presence of acetosyringone to induce the Agrobacterium vir genes. The optical density of the cultures was maintained at 0.008 for pepper and tomato and at 0.25 for citrus, geranium and rice. Strain GV2260 was flooded into healthy, young, fully expanded leaves of vigorous plants into the apoplastic space through open stomata by injection using a tuberculin syringe without a needle, flooding entire leaves. After 3-4 days, two grams of leaf tissue (fresh weight), was ground in liquid nitrogen to a fine powder, and 0.5 ml of ice cold phosphate buffered saline (PBS; 137 mM NaCl, 2.7 mM KCl, 10 mM potassium phosphate, pH 7.4) was added and mixed thoroughly at 4 C. The mixture was mixed on an orbital shaker at 4 C for 30 minutes, and plant debris was pelleted at 10,000×g for 15 minutes and discarded. The supernatants from these crude plant leaf extracts were directly used in lipase/esterase assays.\nThe second activity assay was a phenol red lipase/esterase assay using tributyrin, olive oil or Tween 20 as substrates as described by Singh et al. (2006), except that liquid medium, rather than solidified agar medium, was used. Twenty microliter droplets of crude plant leaf extracts and the positive control were placed in the tributyrin/phenol red medium containing tributyrin, olive oil or Tween 20 and incubated at 30 C overnight. […] Transient expression of bovine PGE was confirmed in tobacco, pepper, tomato, citrus, geranium, and rice plants.\nFor transient expression assays, the plant transformation and expression vectors constructed in Example 15 were moved into A. tumefaciens strain GV2260 by electroporation. GV2260 carrying pIPG823 was used for transient expression in tobacco and geranium plants exactly as described in Example 20. The supernatants from crude plant leaf extracts were directly used in phenol red lipase/esterase assays using tributyrin and olive oil as substrates exactly as described in Example 20."}},
  "data": [
    {"molecule": "NC[C@H]1O[C@H](O[C@H]2[C@H](O)[C@@H](O[C@H]3O[C@H](CO)[C@@H](O)[C@H](N)[C@H]3O)[C@H](N)C[C@@H]2N)[C@H](O)[C@@H](O)[C@@H]1O", "note": "[kanamycin, reference compound]", "values": [
      {"measurement": "No. of independent calli forming shoots", "setting": "[1]", "result": 55},
      {"measurement": "No. of rooted shoots", "setting": "[1]", "result": 55},
      {"measurement": "Transformation frequency (%)", "setting": "[1]; confirmed by PCR", "result": 19, "unit": "%"},
      {"measurement": "No. of independent calli forming shoots", "setting": "[2]", "result": 40},
      {"measurement": "No. of rooted shoots", "setting": "[2]", "result": 40},
      {"measurement": "Transformation frequency (%)", "setting": "[2]", "result": 1, "unit": "%"},
      {"measurement": "Transformation frequency (%)", "setting": "[2]; listed as Kanamycin", "result": 1, "unit": "%"}
    ]},
    {"molecule": "Triton X-100", "values": [
      {"measurement": "Survival of geranium petiole explants on regeneration medium", "setting": "[3]; 0.01% detergent, Week 1", "result": "39/40"},
      {"measurement": "Survival of geranium petiole explants on regeneration medium", "setting": "[3]; 0.01% detergent, Week 2", "result": "39/40"},
      {"measurement": "Survival of geranium petiole explants on regeneration medium", "setting": "[3]; 0.01% detergent, Week 3", "result": "39/40"},
      {"measurement": "Survival of geranium petiole explants on regeneration medium", "setting": "[3]; 0.01% detergent, Week 4", "result": "14/40"},
      {"measurement": "Survival of geranium petiole explants on regeneration medium", "setting": "[3]; 0.1% detergent, Week 1", "result": "40/40"},
      {"measurement": "Survival of geranium petiole explants on regeneration medium", "setting": "[3]; 0.1% detergent, Week 2", "result": "40/40"},
      {"measurement": "Survival of geranium petiole explants on regeneration medium", "setting": "[3]; 0.1% detergent, Week 3", "result": "40/40"},
      {"measurement": "Survival of geranium petiole explants on regeneration medium", "setting": "[3]; 0.1% detergent, Week 4", "result": "9/40"},
      {"measurement": "Survival of geranium petiole explants on regeneration medium", "setting": "[3]; 1% detergent, Week 1", "result": "39/40"},
      {"measurement": "Survival of geranium petiole explants on regeneration medium", "setting": "[3]; 1% detergent, Week 2", "result": "39/40"},
      {"measurement": "Survival of geranium petiole explants on regeneration medium", "setting": "[3]; 1% detergent, Week 3", "result": "37/40"},
      {"measurement": "Survival of geranium petiole explants on regeneration medium", "setting": "[3]; 1% detergent, Week 4", "result": "19/40"},
      {"measurement": "Killing of geranium explants in tissue culture (in words)", "setting": "[3]; summary of Table 1", "result": "much less efficient and much more variable in killing"},
      {"measurement": "Survival of tomato leaf explants on regeneration medium", "setting": "tomato leaf explants; Week 1", "result": "40/40"},
      {"measurement": "Survival of tomato leaf explants on regeneration medium", "setting": "tomato leaf explants; Week 2", "result": "40/40"},
      {"measurement": "Survival of tomato leaf explants on regeneration medium", "setting": "tomato leaf explants; Week 3", "result": "10/40"},
      {"measurement": "Survival of tomato leaf explants on regeneration medium", "setting": "tomato leaf explants; Week 4", "result": "7/40"},
      {"measurement": "Killing of tomato explants in tissue culture (in words)", "setting": "tomato leaf explants; summary of Table 2", "result": "both less effective and unpredictable in killing"}
    ]},
    {"molecule": "B1", "values": [
      {"measurement": "Substrates utilized in phenol red lipase/esterase assay", "setting": "[4]", "result": "utilized all three substrates: tributyrin, olive oil and Tween 20"}
    ]},
    {"molecule": "B2", "values": [
      {"measurement": "Substrates utilized in phenol red lipase/esterase assay", "setting": "[4]", "result": "utilized tributyrin and olive oil"}
    ]}
  ]
}
